Data taken from patent publication US20170258970A1, “POLYMER-DRUG CONJUGATE BASED ON A POLYISOOLEFIN-BASED COPOLYMER” (ARLANXEO Singapore Pte. Ltd., priority 2014, published 2017).

Test system: C2C12 mouse myoblast cells
Test: MTT assay of film leachate toxicity
Assay type: cell-based
Conditions: 24 h exposure
Protocol: Toxicity studies were also performed using the MTT assay to evaluate whether films of 3.0a-c on stainless steel would release toxic levels of paclitaxel or any other leachate during a defined incubation period in cell culture media.
Preparation of leachate: Test samples were melt-pressed to a thickness of 0.4 mm. The melt pressed film was then cut into squares of 1 cm×1 cm. Samples were sterilized by washing with 70% ethanol and subsequently dried for 2 h under UV light. […]
MTT assay: C2C12 mouse myoblast cells were seeded in a Nunclon™ 96-well U bottom transparent polystrol plate to obtain 10,000 cells/well in 100 μL of DMEM containing serum, glutamax and antibiotics as described above. […] After shaking (1 second, 2 mm amp, 654 rpm), the absorbance of the wells at 540 nm was read using an M1000-Pro plate reader (Tecan). The absorbance of wells not containing cells but treated by all of the above steps was subtracted as a background and the cell viability was calculated relative to wells containing cells that were exposed to just culture medium. No (0%) cell viability was detected for the cells exposed to the highest concentrations of the positive control sodium lauryl sulfate, confirming the sensitivity of the assay.

## CCCCCCCCCCCCOS(=O)(=O)[O-].[Na+] [SDS, sodium dodecyl sulfate]
At 0.2 μg/mL
  cell viability: < 10%
Highest concentrations of the positive control
  cell viability: 0%
